Data from article PMC11288129, “Diversely evolved xibalbin variants from remipede venom inhibit potassium channels and activate PKA-II and Erk1/2 signaling” (BMC Biology, 2024).
Positions of bridges follow the written chain, without caps; N, C: chain ends. No end group written: not given here.

Experiments:
rNav1.2 = test: TEVC inhibition, Nav1.2; format: cell-based, rat; details: 1 µM, Xenopus oocytes, ND96, 18–22 °C, mean ± SEM, n ≥ 3
Text: For the expression of Kv channels rat Kv1.1 (GenBank accession number: NM_173095 [88, 89]), rKv1.2 (NM_012970 [90, 91]), human Kv1.3 (NM_002232 [92, 93]), rKv1.4 (NM_012971 [94, 95]), rKv1.6 (NM_023954 [96, 97]), hKv2.1 (NM_004975 [98, 99]), hKv3.1 (NM_004976 [100, 101]), rKv4.2 (NM_031739 [102, 103]), hKv10.1 (NM_172362 [104, 105]), hERG1 [Kv11.1, (NM_000238 [106, 107])], and Shaker IR [from Drosophila melanogaster, (NM_167595 [108, 109])], Nav channels [rNav1.2 (NM_012647 [42, 110]), rNav1.4 (NM_013178 [111, 112]), hNav1.5 (NM_198056 [113, 114]), mNav1.6 (NM_001077499 [115, 116]), BgNav [from Blattella germanica, (DQ466887 [117, 118])] and the auxiliary subunits rβ1 (NM_001271045 [119, 120]), hβ1 (NM_001037 [121, 122]), and TipE [from D. melanogaster, (NM_079196 [109, 123])], and Cav channels hCav3.1 [124, 125], hCav3.2 [126, 127], and hCav3.3 [128, 129] in Xenopus oocytes, the linearized plasmids were transcribed using the T7 or SP6 mMESSAGEmMACHINE transcription kit (Ambion, Austin, TX, USA). […]
Whole-cell currents of oocytes were recorded 1 to 3 days after injection. […] The current–voltage (IV) relationships were determined by 100-ms step depolarizations between − 90 and + 40 mV, using 5 mV increments. […]

[1] = test system: HMEC-1 human microvascular endothelial cells; test: Proliferation of HMEC-1 cells (crystal violet); format: cell-based; details: 25 µg/ml
Protocol: We initially determined the cytotoxic effects of xibalbins on primary sensory neurons from adult male rats cultured in vitro [2]. […] We exposed overnight cultures of dissociated rat dorsal root ganglions (DRGs) to xibalbins for 5 and 30 min. Subsequently, all cells were fixed and immunocytochemically stained for the neuronal marker UCHL1 to identify neurons. The entire culture was digitally scanned using high content imaging (HCI) microscopy, and cell numbers, UCHL1 staining per cell, and cell size was analyzed. No loss of neurons was induced by either of the tested xibalbins, even at the highest concentration of 0.8 µg/µL (Additional File 3: Figure S2). […] We further investigated the potential toxicity of xibalbins in monocyte/macrophage-like cells (RAW264.7) and human microvascular endothelial cells (HMEC); see Additional File 5: Figure S4 The viability of RAW264.7 cells was detected using a formazan-based assay, while the proliferation of HMECs was assessed by measuring the number of crystal violet-stained cells.
Supplementary file 12915_2024_1955_MOESM5_ESM.jpg: Additional file 5: Figure S4. Effects of xibalbins on cytotoxicity in RAW264.7 macrophages and adhesion of leukocytes onto the vascular endothelium. […] Cells were incubated with WST-8 and the formed formazan was detected by absorbance measurements. […] The amount of DNA-bound crystal violet was detected by absorbance measurements. […]

Sequence: KRSCIRRFGRCDHRPNDCCYNSSCRCNLWGSNCRCQRMGLFQKWGK (disulfide 4-19, 11-24, 18-35, 26-33) [xib13]
- inhibition of Nav1.2 (rNav1.2): 15.6 ± 2.6%
- Prolif. HMEC-1 [1]: 91.3
